Laboratory results: patent publication US20070293544A1, “Novel 4-Arylamino Pyridone Derivatives as Mek Inhibitors for the Treatment of Hyper-Proliferative Disorders” (priority 2004, published 2007)

Tests used:
human MEK1 = human MEK1 (Homo sapiens, UniProt Q02750); assay: Inhibition of human MEK1 kinase activity, time resolved fluorescence resonance energy transfer assay; assay type: biochemical; conditions: 100 nM MEK1, 15 μM ATP, 300 nM ERK2, two hours
Description: The activity of the compounds of the present invitation may be determined by the following procedure: Inhibition of human MEK1 kinase activity was monitored with a homogenous, fluorescence based assay. The assay uses time resolved fluorescence resonance energy transfer to probe for phosphorylation of […] by MEK1. The assay is carried out in low volume 96 well microtiterplates. In a total volume of 15 μl, compounds are incubated with 100 nM MEK1, 15 μM ATP, 300 nM ERK2 employing a buffer containing 20 mM TRIS/HCl, 10 mM MgCl2, 100 μM NaVO4, 1 mM DTT, and 0.005% Tween 20 (pH 7.4). After two hours, 5 nM Europium-anti-PY20 (Perkin Elmer) and 50 nM Anti-GST-Allophycocyanin (CisBio) in buffer containing 50 mM EDTA and 0,05% BSA are added and the reaction incubated for one hour in the dark. Time-resolved fluorescence is measured using a LJL-Analyst (Molecular Devices) with an excitation wavelength of 340 nm and an emission wavelength of 665 nm. The final concentration of DMSO is 2%. To assess the inhibitory potential of the compounds, IC50-values were determined.

Murine colon C26 cells = assay: Tumor cell proliferation assay (ATP Lite), C26; assay type: cell-based; conditions: 4 days incubation
Description: (§1) Assay 2: Tumor Cell Proliferation Assays (ATP Lite)
(§2) Murine colon C26, human melanoma A375 and human melanoma Mel5 cells were plated in 96 well Corning white plates (1500 cells/well for C26, and 2000 cells/well for A375, and MiaPaCa-2) and cultured overnight at 37° C. in 5% CO2. Inhibitors were serially diluted in 100% DMSO and subsequently added to cells to reach a final concentration of 0.25% DMSO. The cells were incubated for 4 days in the presence of test compounds in cell growth media (DMEM with 10% fetal bovine serum, 2 mM glutamine for C26, and MiaPaCa-2, and RPMI with 10% fetal bovine serum, 2 mM glutamine for A375). Cell proliferation was quantitated using the ATP lite cell proliferation kit (Packard). Columns 2-4 show the concentration of compounds required to induce 50% cell death (IC50 in μM) of […]. With “+” meaning 100 μM<IC50≦10 μM and “++” IC50≦1 μM and “n.d.” means not determined.

[1] = tested on: human melanoma Mel5 cells; assay: Tumor cell proliferation assay (ATP Lite), Mel5; assay type: cell-based; conditions: 4 days incubation
Description: as §1, §2

[2] = tested on: human melanoma A375 cells; assay: Tumor cell proliferation assay (ATP Lite), A375; assay type: cell-based; conditions: 4 days incubation
Description: as §1, §2

[3] = Microsomal stability assay, human liver microsomes; assay type: in vitro ADME; conditions: pooled human liver microsomes, pH 7.4; 3 μM compound, 0.5 mg/ml human liver microsomes, 37° C., 2 mM NADPH; read-out: HLM t½
Description: (§3) Assay 3: Microsomal Stability Assay
(§4) Compounds were tested on their stability in human, rat and mouse liver microsomal preparations (HLM, RLM and MLM respectively). At a final concentration of 3 μM, compounds were incubated at 37° C. with 0.5 mg/ml human, rat or mouse liver microsomes in a buffer containing 50 mM phosphate, pH 7.4 and 2 mM NADPH. Pooled human liver microsomes or pooled male rat liver microsomes (Sprague Dawley) were obtained from NatuTec (Frankfurt, Germany). Incubations without NADPH served as negative controls. Reactions were stopped after 0, 15, 30, 45 or 60 min by the addition of acetonitrile and microsomes were pelleted by centrifugation (10 min at 6200× g). Supernatants were analyzed by HPLC regarding the concentration of mother compound. Finally, the half-life of compounds in the regarding microsomal preparation was calculated.

[4] = Microsomal stability assay, rat liver microsomes; assay type: in vitro ADME; conditions: male, Sprague Dawley, pooled rat liver microsomes, pH 7.4; 3 μM compound, 0.5 mg/ml rat liver microsomes, 37° C., 2 mM NADPH; read-out: RLM t½
Description: as §3, §4

[5] = in vivo; cited from earlier work
Tumors = conditions: patients; cited from earlier work

Chain of human MEK1 (Q02750 whole entry): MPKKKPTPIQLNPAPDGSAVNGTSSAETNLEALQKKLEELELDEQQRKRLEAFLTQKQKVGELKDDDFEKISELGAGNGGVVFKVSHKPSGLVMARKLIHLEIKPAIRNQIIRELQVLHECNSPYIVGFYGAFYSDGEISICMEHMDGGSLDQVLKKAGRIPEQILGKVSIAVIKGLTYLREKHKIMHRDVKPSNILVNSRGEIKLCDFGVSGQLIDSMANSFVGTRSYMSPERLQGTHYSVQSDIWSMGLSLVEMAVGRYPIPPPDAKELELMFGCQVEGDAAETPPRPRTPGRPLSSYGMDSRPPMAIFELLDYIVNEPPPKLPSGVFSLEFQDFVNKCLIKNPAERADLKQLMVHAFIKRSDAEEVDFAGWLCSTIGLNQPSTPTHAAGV

SMILES | IC50 (human MEK1) [µM] | C26 cells IC50 (Murine colon C26 cells) | Mel5 cells IC50 [1] | A375 cells IC50 [2] | half-life at 3 μM [3] [h] | half-life at 3 μM [4] [h] | bioavailability [5] | efficacy in clinical phase II trials (Tumors)
Cc1cc(Br)ccc1Nc1cc(=O)n(C)cc1C(=O)NOC[C@@H](O)CO [Compound 4b, 4-[(4-Bromo-2-methylphenyl)amino]-N-{[(2S)-2,3-dihydroxypropyl]oxy}-1-methyl-6-oxo-1,6-dihydropyridine-3-carboxamide] | ≤ 1 | + (100 μM<IC50≦10 μM) | + (100 μM<IC50≦10 μM) | + (100 μM<IC50≦10 μM) | > 2 | > 2 |  | 
C=CCNc1nnc(-c2cn(C)c(=O)cc2Nc2ccc(Br)cc2C)o1 [Compound 7a, 5-(5-Allylamino-[1,3,4]oxadiazol-2-yl)-4-(4-bromo-2-methyl-phenylamino)-1-methyl-1H-pyridin-2-one] | ≤ 1 |  |  |  | 0.517 to 2 | 0.517 to 2 |  | 
O=C(NOCC1CC1)c1ccc(F)c(F)c1Nc1ccc(I)cc1Cl [PD-184352] |  |  |  |  |  |  | low | lacking efficacy

The next lines start with results.

IC50 (human MEK1) [µM] | C26 cells IC50 (Murine colon C26 cells) | Mel5 cells IC50 [1] | A375 cells IC50 [2] | half-life at 3 μM [3] [h] | half-life at 3 μM [4] [h] | SMILES | bioavailability [5] | efficacy in clinical phase II trials (Tumors)
≤ 1 | + (100 μM<IC50≦10 μM) | + (100 μM<IC50≦10 μM) | + (100 μM<IC50≦10 μM) |  |  | Cc1cc(Br)ccc1Nc1cc(=O)n(C)cc1C(=O)O [Compound 3a, 4-(4-Bromo-2-methyl-phenylamino)-1-methyl-6-oxo-1,6-dihydro-pyridine-3-carboxylic acid] |  | 
≤ 1 |  |  |  |  |  | Cc1cc(I)ccc1Nc1cc(=O)n(C)cc1C(=O)O [Compound 3b, 4-(4-Iodo-2-methyl-phenylamino)-1-methyl-6-oxo-1,6-dihydro-pyridine-3-carboxylic acid] |  | 
≤ 1 | + (100 μM<IC50≦10 μM) | + (100 μM<IC50≦10 μM) | + (100 μM<IC50≦10 μM) |  |  | Cc1cc(Br)ccc1Nc1cc(=O)n(C)cc1C(=O)NO [Compound 4a, 4-(4-Bromo-2-methyl-phenylamino)-1-methyl-6-oxo-1,6-dihydro-pyridine-3-carboxylic acid hydroxyamide] |  | 
≤ 1 | + (100 μM<IC50≦10 μM) |  | + (100 μM<IC50≦10 μM) | > 2 | > 2 | Cc1cc(I)ccc1Nc1cc(=O)n(C)cc1C(=O)NOC[C@@H](O)CO [Compound 4c, 4-[(4-Iodo-2-methylphenyl)amino]-N-{[(2S)-2,3-dihydroxypropyl]oxy}-1-methyl-6-oxo-1,6-dihydropyridine-3-carboxamide] |  | 
